Assay results: patent US20090069565A1, “NEW INDOLE DERIVATIVES AS FACTOR XA INHIBITORS” (priority 2001, published 2009)
Like-named read-outs stand apart in the source and are kept apart here.

Molecular target: human factor Xa (Homo sapiens, UniProt P00742)
Test: Factor Xa assay (chromogenic, substrate S-2765);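 note: purified enzyme preincubated with inhibitor for 10 min before substrate addition, final reaction volume 100 µl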
Assay type: biochemical
[1] = inhibition constant for factor Xa, purified enzyme 0.5 nM, substrate S-2765 140 μM, 25° C., pH 7.8, Ki=IC50/{1+(substrate concentration/Km)}, read-out: Ki(FXa)

Sequence of human factor Xa (P00742 235-488 limits assumed): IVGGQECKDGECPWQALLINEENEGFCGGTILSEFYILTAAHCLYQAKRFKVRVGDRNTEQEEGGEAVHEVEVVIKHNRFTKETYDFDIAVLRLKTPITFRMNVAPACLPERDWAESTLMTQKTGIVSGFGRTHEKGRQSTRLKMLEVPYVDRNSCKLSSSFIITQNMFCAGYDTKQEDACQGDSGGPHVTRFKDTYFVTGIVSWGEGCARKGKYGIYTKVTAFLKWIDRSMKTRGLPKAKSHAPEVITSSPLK
Sequence of human factor Xa (P00742 41-179 partner limits assumed): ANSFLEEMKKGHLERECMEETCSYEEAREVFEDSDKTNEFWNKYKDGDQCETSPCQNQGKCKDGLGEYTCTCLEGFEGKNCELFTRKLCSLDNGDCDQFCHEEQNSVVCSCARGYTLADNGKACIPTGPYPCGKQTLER

Row | Structure (SMILES) | Ki (read-out: Ki(FXa)) | Ki [1] | other results
1 | O=C(NCC1CCN(c2ccncc2)CC1)c1cc2ccccc2n1Cc1cc(-c2ccc(Cl)s2)on1 [Example 47, 1-[5-(5-Chloro-thiophen-2-yl)-isoxazol-3-ylmethyl]-1H-indole-2-carboxylic acid (3,4,5,6-tetrahydro-2H-[1,4′]bipyridinyl-4-ylmethyl)-amide] | – | 0.064 µM | –
2 | COC(=O)N1CCC(NC(=O)c2cc3ccccc3n2Cc2cc(-c3ccc(Cl)s3)on2)CC1 [Example 201, 4-({1-[5-(5-Chloro-thiophen-2-yl)-isoxazol-3-ylmethyl]-1H-indole-2-carbonyl}-amino)-piperidine-1-carboxylic acid methyl ester] | 1.78 µM | – | –
3 | CC(C)N1CCC(NC(=O)c2cc3c(Br)cccc3n2Cc2cc(-c3ccc(Cl)s3)on2)CC1 [Example 173, 4-Bromo-1-[5-(5-chloro-thiophen-2-yl)-isoxazol-3-ylmethyl]-1H-indole-2-carboxylic acid (1-isopropyl-piperidin-4-yl)-amide] | 0.015 µM | – | –
4 | CC(C)N1CCC(NC(=O)c2cc3ccccc3n2CC(=O)Nc2ccc(Cl)cc2)CC1 [Example 248, 1-[(4-chloro-phenylcarbamoyl)-methyl]-1H-indole-2-carboxylic acid (1-isopropyl-piperidin-4-yl)-amide] | – | 0.003 µM | –
5 | CC(C)N1CCC(NC(=O)c2cc3cc(OCc4ccccc4)ccc3n2Cc2cc(-c3ccc(Cl)s3)on2)CC1 [Example 4] | – | 0.834 µM | –
6 | CC(C)N1CCC(NC(=O)c2cc3ccccc3n2Cc2nc(-c3ccc(Cl)cc3)no2)CC1 [Example 213, 1-[3-(4-Chloro-phenyl)-[1,2,4]oxadiazol-5-ylmethyl]-1H-indole-2-carboxylic acid (1-isopropyl-piperidin-4-yl)-amide] | – | 2.23 µM | –
7 | CC(C)N1CCC(NC(=O)c2cc3ccccc3n2CCc2ccc(Cl)cc2)CC1 [Example 169, 1-[2-(4-Chloro-phenyl)-ethyl]-1H-indole-2-carboxylic acid (1-isopropyl-piperidin-4-yl)-amide] | – | 0.073 µM | –
8 | NC(=O)CN1CCC(NC(=O)c2cc3ccccc3n2Cc2cc(-c3ccc(Cl)s3)on2)CC1 [Example 262, 1-[5-(5-chloro-thiophen-2-yl)-isoxazol-3-ylmethyl]-1H-indole-2-carboxylic acid (1-carbamoylmethyl-piperidin-4-yl)-amide] | 0.25 µM | – | –
9 | CC(C)N1CCC(NC(=O)c2cc3ccccc3n2CC(=O)Nc2ccc(Cl)s2)CC1 [Example 249, 1-[(5-chloro-thiophen-2-ylcarbamoyl)-methyl]-1H-indole-2-carboxylic acid (1-isopropyl-piperidin-4-yl)-amide] | – | 0.015 µM | –
10 | CC(C)N1CCC(NC(=O)c2c(-c3ccccc3)c3cc([N+](=O)[O-])ccc3n2Cc2cc(-c3ccc(Cl)s3)on2)CC1 [Example 24] | 0.132 µM | – | –
11 | Cc1cccc2cc(C(=O)NC3CCN(c4ccncc4)CC3)n(Cc3cc(-c4ccc(Cl)s4)on3)c12 [Example 29, 1-[5-(5-Chloro-thiophen-2-yl)-isoxazol-3-ylmethyl]-7-methyl-1H-indole-2-carboxylic acid (3,4,5,6-tetrahydro-2H-[1,4′]bipyridinyl-4-yl)-amide] | 0.019 µM | – | –
12 | O=C(c1cc2ccccc2n1Cc1cc(-c2ccc(Cl)s2)on1)N1CCC(N2CCCC2)CC1 [Example 38, {1-[5-(5-Chloro-thiophen-2-yl)-isoxazol-3-ylmethyl]-1H-indol-2-yl}-(4-pyrrolidin-1-yl-piperidin-1-yl)-methanone] | 0.701 µM | – | –
13 | CC(C)N1CCC(NC(=O)c2cc3ccccc3n2Cc2cc3ccc(Cl)cc3s2)CC1 [Example 119, 1-(6-Chloro-benzo[b]thiophen-2-ylmethyl)-1H-indole-2-carboxylic acid (1-isopropyl-piperidin-4-yl)-amide] | – | 0.04 µM | –
14 | COc1cccc2c1cc(C(=O)NC1CCN(C(C)C)CC1)n2Cc1cc(-c2ccc(Cl)s2)on1 [Example 15] | 0.0035 µM | – | –
15 | Cc1cccc2cc(C(=O)N3CCC(Nc4ccncc4)CC3)n(Cc3cc(-c4ccc(Cl)s4)on3)c12 [Example 33, {1-[5-(5-Chloro-thiophen-2-yl)-isoxazol-3-ylmethyl]-7-methyl-1H-indol-2-yl}-[4-(pyridin-4-ylamino)-piperidin-1-yl]-methanone] | 0.011 µM | – | –
16 | CC(C)N1CCC(NC(=O)c2cc3ccccc3n2Cc2cnc(-c3ccc(Cl)s3)s2)CC1 [Example 162] | – | 0.057 µM | –
17 | CC(C)N1CCC(NC(=O)c2cc3ccccc3n2Cc2nnc(-c3ccc(Cl)s3)s2)CC1 [Example 120, 1-[5-(5-Chloro-thiophen-2-yl)-[1,3,4]thiadiazol-2-ylmethyl]-1H-indole-2-carboxylic acid (1-isopropyl-piperidin-4-yl)-amide] | – | 0.004 µM | –
18 | CC(C)CN1CCC(NC(=O)c2cc3ccccc3n2Cc2cc(-c3ccc(Cl)s3)on2)CC1 [Example 199, 1-[5-(5-Chloro-thiophen-2-yl)-isoxazol-3-ylmethyl]-1H-indole-2-carboxylic acid (1-isobutyl-piperidin-4-yl)-amide] | – | 0.142 µM | –
19 | O=C(NC1CCN(CC(F)(F)F)CC1)c1cc2ccccc2n1Cc1cc(-c2ccc(Cl)s2)on1 [Example 188, 1-[5-(5-Chloro-thiophen-2-yl)-isoxazol-3-ylmethyl]-1H-indole-2-carboxylic acid [1-(2,2,2-trifluoro-ethyl)-piperidin-4-yl]-amide] | 1.03 µM | – | –
20 | CC(C)N1CCN(NC(=O)c2cc3ccccc3n2Cc2cc(-c3ccc(Cl)s3)on2)CC1 [Example 202, 1-[5-(5-Chloro-thiophen-2-yl)-isoxazol-3-ylmethyl]-1H-indole-2-carboxylic acid (4-isopropyl-piperazin-1-yl)-amide] | 0.02 µM | – | –
21 | CC(C)N1CCC(NC(=O)c2cc3cc([N+](=O)[O-])ccc3n2CC(=O)Nc2ccc(Cl)cc2)CC1 [Example 257, 1-[(4-chloro-phenylcarbamoyl)-methyl]-5-nitro-1H-indole-2-carboxylic acid (1-isopropyl-piperidin-4-yl)-amide] | 0.006 µM | – | –
22 | CC(C)N1CCC(NC(=O)c2cc3c(Cl)cccc3n2Cc2cc(-c3ccc(Cl)s3)on2)CC1 [Example 182, 4-Chloro-1-[5-(5-chloro-thiophen-2-yl)-isoxazol-3-ylmethyl]-1H-indole-2-carboxylic acid (1-isopropyl-piperidin-4-yl)-amide] | – | – | Ki: 0.005 µM
23 | CC(C)N1CCC(NC(=O)c2cc3ccccc3n2CC(=O)Nc2ccc(Cl)cc2F)CC1 [Example 250, 1-[(4-chloro-2-fluoro-phenylcarbamoyl)-methyl]-1H-indole-2-carboxylic acid (1-isopropyl-piperidin-4-yl)-amide] | 0.031 µM | – | –
24 | CCN1CC[C@H](NC(=O)c2cc3ccccc3n2Cc2cc(-c3ccc(Cl)s3)on2)C1 [Example 219] | 0.173 µM | – | –
25 | CCCN1CCC(NC(=O)c2cc3ccccc3n2Cc2cc(-c3ccc(Cl)s3)on2)CC1 [Example 200] | – | 0.064 µM | –
26 | O=C(Cn1c(C(=O)N2CCC(Nc3ccncc3)CC2)cc2ccccc21)Nc1ccc(Cl)cc1 [Example 254, N-(4-chloro-phenyl)-2-{2-[4-(pyridin-4-ylamino)-piperidine-1-carbonyl]-indol-1-yl}-acetamide] | 0.223 µM | – | –

Continued, in another order:

Row | Ki (read-out: Ki(FXa)) | Ki [1] | Structure (SMILES) | other results
27 | 0.004 µM | – | COc1ccc2cc(C(=O)NC3CCN(C(C)C)CC3)n(Cc3cc(-c4ccc(Cl)s4)on3)c2c1 [Example 7] | –
28 | – | 0.009 µM | Cc1ccc2c(c1)cc(C(=O)NC1CCN(C(C)C)CC1)n2Cc1cc(-c2ccc(Cl)s2)on1 [Example 8] | –
29 | 0.024 µM | – | CC(C)N1CCC(NC(=O)c2cc3c(Cl)ccc(Cl)c3n2Cc2cc(-c3ccc(Cl)s3)on2)CC1 [Example 180, 4,7-Dichloro-1-[5-(5-chloro-thiophen-2-yl)-isoxazol-3-ylmethyl]-1H-indole-2-carboxylic acid (1-isopropyl-piperidin-4-yl)-amide] | –
30 | 0.012 µM | – | Cc1ccc(C)c2c1cc(C(=O)N(CC(=O)O)C1CCN(C(C)C)CC1)n2Cc1cc(-c2ccc(Cl)s2)on1 [Example 230, [{1-[5-(5-Chloro-thiophen-2-yl)-isoxazol-3-ylmethyl]-4,7-dimethyl-1H-indole-2-carbonyl}-(1-isopropyl-piperidin-4-yl)-amino]-acetic acid] | –
31 | – | 0.007 µM | CC(C)N1CCC(NC(=O)c2cc3ccc(Cl)cc3n2Cc2cc(-c3ccc(Cl)s3)on2)CC1 [Example 21] | –
32 | 0.0002 µM | – | CC(C)N1CCC(NC(=O)c2cc3cc([N+](=O)[O-])cc([N+](=O)[O-])c3n2Cc2cc(-c3ccc(Cl)s3)on2)CC1 [Example 27] | –
33 | 0.088 µM | – | CCOC(=O)CN(C(=O)c1cc2cc(Cl)cc(Cl)c2n1Cc1cc(-c2ccc(Cl)s2)on1)C1CCN(C(C)C)CC1 [Example 227, [{5,7-Dichloro-1-[5-(5-chloro-thiophen-2-yl)-isoxazol-3-ylmethyl]-1H-indole-2-carbonyl}-(1-isopropyl-piperidin-4-yl)-amino]-acetic acid ethyl ester] | –
34 | 0.024 µM | – | CC(C)N1CCC(NC(=O)c2cc3cc(C(N)=O)ccc3n2Cc2cc(-c3ccc(Cl)s3)on2)CC1 [Example 247, 1-[5-(5-Chloro-thiophen-2-yl)-isoxazol-3-ylmethyl]-1H-indole-2,5-dicarboxylic acid 5-amide 2-[(1-isopropyl-piperidin-4-yl)-amide]] | –
35 | 0.003 µM | – | CC(C)N1CCC(NC(=O)c2cc3cc(CO)ccc3n2Cc2cc(-c3ccc(Cl)s3)on2)CC1 [Example 237, 1-[5-(5-Chloro-thiophen-2-yl)-isoxazol-3-ylmethyl]-5-hydroxymethyl-1H-indole-2-carboxylic acid (1-isopropyl-piperidin-4-yl)-amide] | –
36 | 0.01 µM | – | CC(C)N1CCC(NC(=O)c2cc3cc(C(=O)O)ccc3n2Cc2cc(-c3ccc(Cl)s3)on2)CC1 [Example 236, 1-[5-(5-Chloro-thiophen-2-yl)-isoxazol-3-ylmethyl]-2-(1-isopropyl-piperidin-4-ylcarbamoyl)-1H-indole-5-carboxylic acid] | –
37 | 0.074 µM | – | CC(C)N1CCC(N(CC(=O)O)C(=O)c2cc3cc(Cl)cc(Cl)c3n2Cc2cc(-c3ccc(Cl)s3)on2)CC1 [Example 233, [{5,7-Dichloro-1-[5-(5-chloro-thiophen-2-yl)-isoxazol-3-ylmethyl]-1H-indole-2-carbonyl}-(1-isopropyl-piperidin-4-yl)-amino]-acetic acid] | –
